Test results taken from PubChem BioAssay AID179 (DTP/NCI, 2004).
Calls of active or inactive are those of the source.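 The calls were made as follows: active = compounds giving half or more protection of infected cells from virus-caused growth loss, again on retest; inactive = the rest.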

Test system: CEM cells HIV-1 protection, formazan growth assay
Assay: NCI AIDS Antiviral Assay
Conditions: for IC50: measured here: growth of uninfected CEM cells
Procedure, shortened: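 Protection of CEM cells against HIV-1 measured as cell growth via soluble formazan read-out, with five concentrations tested on both infected and uninfected cells; failure to protect may reflect toxicity.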

| SMILES | EC50 [µM] | IC50 [µM] | outcome |
| --- | --- | --- | --- |
| CCCCCN(CCCCC)/N=C/c1c2c(O)c3c(O)c(C)c4c(c3c1O)C(=O)C(C)(O/C=C/C(OC)C(C)C(OC(C)=O)C(C)C(O)C(C)C(O)C(C)/C=C/C=C(C)C(=O)N2)O4 (stereo not drawn) | > 200 | 8.32 | – |
| O=C(Nc1ccc2c(O)cc(S(=O)(=O)O)cc2c1)Nc1ccc2c(O)c(N=Nc3ccc4cc(S(=O)(=O)O)ccc4c3)c(S(=O)(=O)O)cc2c1 | – | – | active |
| C/C=C/C#CC#CC(O)C(O)/C=C/CCCO (stereo not drawn) | > 77.6 | > 77.6 | – |
| Cc1c2ccncc2cc2c1sc1ccncc12 | > 39.8 | 0.589 | – |
| CN(C)c1ccc(/C=C/C=C2\C=Cc3ccccc32)cc1 | > 36.3 | > 36.3 | – |
| O=C1CCC2(O)c3ccccc3C2Cc2ccccc21 (stereo not drawn) | > 200 | > 200 | – |
| CCOC(=O)C1SC(=Nc2cccc(Cl)c2C)N=C1C (stereo not drawn) | 6.03 | 60.3 | – |
| O=C(OCc1ccccc1)N1c2cc([N+](=O)[O-])ccc2C(=O)N2CCC[C@H]2C1O (stereo partly drawn) | > 200 | 138 | – |
| NCCCCNOCCCN | > 200 | > 200 | – |
| c1ccc2c3nnc(c2c1)SCCSCCSc1nnc(c2ccccc12)SCCSCCS3 | > 200 | > 200 | – |
| Cc1cc2oc(-c3ccccc3)c(C)c(=O)c2c2c1OC(C)(C)S2 | > 39.8 | > 39.8 | – |
| COc1cc2c(oc(=O)c3c4occc4cc(OC)c23)c2cccc(O)c12 | > 1.45 | > 1.45 | – |
| CCN1C[C@]2(C)CC[C@H](OCc3ccccc3)C34C5C[C@@H]6CC[C@](O)(C(C[C@@H]32)C14)C5[C@H]6OCc1ccccc1 (stereo partly drawn) | > 200 | > 100 | – |
| COc1cccc(C(=O)C#Cc2cnc(OC)nc2OC)c1 | > 0.2 | 0.0437 | – |
| COc1ccc(/C=C/C(=O)C(C)(C)CN2CCCCC2)cc1 | > 933 | 10.5 | – |
| CCOC(=O)C(C)(C)Oc1ccc2c(-c3ccc(Cl)cc3)c(-c3ccc(Cl)cc3)c(=O)oc2c1 | > 7.59 | > 7.59 | – |
| CC(C)C(C(=O)O)n1[se]c2ccccc2c1=O (stereo not drawn) | 15.5 | 120 | – |
| C1=Nc2ccccc2N=Cc2ccccc2NCCNc2ccccc21 | > 200 | > 200 | – |
| O=C(Nc1cccc(C(F)(F)F)c1)C(=O)C(C(=O)c1ccc(Cl)c(Cl)c1)C1OC(=O)c2ccccc21 (stereo not drawn) | > 158 | 13.8 | – |
| O=[N+]([O-])c1ccc(Cl)cc1C1SCc2nc3ccccc3n21 (stereo not drawn) | – | – | inactive |
| O=S1c2ccccc2N=C(c2cccc3ccccc23)CC1c1cccc2ccccc12 (stereo not drawn) | > 60.3 | > 60.3 | – |

| SMILES | EC50 [µM] | IC50 [µM] | outcome |
| --- | --- | --- | --- |
| COC(=O)C(/C(=N\NC(N)=S)C(=O)Nc1ccccc1[N+](=O)[O-])c1cnc2ccccc2n1 (stereo not drawn) | > 145 | > 145 | – |
| OCn1nc(Cl)c2cc(Cl)ccc21 | > 200 | 56.2 | – |
| O=C(CC(C(=O)c1ccoc1)c1ccco1)c1ccco1 (stereo not drawn) | > 200 | 151 | – |
| c1ccc2nn(C3CCCCO3)nc2c1 (stereo not drawn) | > 200 | > 200 | – |
| CCOC(=O)c1cc(-c2ccn(C(C)=O)c2)c(-c2cc(C)co2)[nH]1 | 18.2 | > 200 | – |
| COc1ccc(OC)c(/C=C/NC=O)c1 | > 200 | > 200 | – |
| COC(=O)C1=C(C(=O)OC)C2(CCCCCC2=O)OC1=O (stereo not drawn) | > 851 | 45.7 | – |
| O=C(NNC(=O)c1ccccc1O)c1cccc(Br)c1 | > 200 | 6.46 | – |
| NNc1ncnc2cccc(Cl)c12 | > 200 | > 200 | – |
| COC(=O)c1c(C(=O)OC)c2ccccn2c1-c1cc(OC)c(Br)c(=O)o1 | > 200 | > 200 | – |
| Cn1c(C2CCCc3c2c2ccccc2n3C)cc2ccccc21 (stereo not drawn) | > 16.6 | > 16.6 | – |
| O=C(Nc1cc2c(oc1=O)CCCCCC2)c1cnccn1 | > 50.1 | > 50.1 | – |
| O=C(/C=C/c1ccccc1)Oc1ccc(C(=O)/C=C/c2ccccc2)cc1 | > 151 | 6.76 | – |
| CC1(C)c2ccccc2C(C)(C)C(C(=O)Nc2ccccc2)C1C(=O)O (stereo not drawn) | – | – | inactive |
| CCCCCC(C)[P+](c1ccccc1)(c1ccccc1)c1ccccc1 (stereo not drawn) | > 200 | 0.955 | – |
| CC(/C=N/NC1=NCCCN1)=N\NC1=NCCCN1 | > 200 | > 200 | – |
| C/C1=C\C(=O)OC2CC(CCC(C)/C=C/CC1)OC(O)(C1CSC(=O)N1)C2 (stereo not drawn) | > 129 | 3.98 | – |
| CCOC(=O)c1c(NC(=O)c2ccc(OC)cc2)sc2c1CCCC2 | > 151 | > 151 | – |
| OCC1CCCCN1Cc1nc2ccc(Cl)cc2[nH]1 (stereo not drawn) | > 200 | 195 | – |
| O=C1OC(OC2OC(=O)c3ccccc32)c2ccccc21 (stereo not drawn) | > 200 | > 200 | – |
| CC(C)(C)OC(=O)NC(Cc1ccccc1)C(=O)OCN1C(=O)C2C3C=CC(C2C1=O)C1C2C(=O)N(COC(=O)C(Cc4ccccc4)NC(=O)OC(C)(C)C)C(=O)C2C31 (stereo not drawn) | > 100 | 15.5 | – |

| SMILES | EC50 [µM] | IC50 [µM] | outcome |
| --- | --- | --- | --- |
| CCOC(=O)c1cnc(-n2[nH]c(C)c(CCO)c2=O)[nH]c1=O | > 200 | > 200 | – |
| CC(=O)OC(C(=O)[O][Sn]([CH3])([CH3])[CH3])c1ccccc1 (stereo not drawn) | – | – | inactive |
| C=CCN1C(=O)CS/C1=N\NC(=O)c1c(C)nc2sccn12 | > 741 | 240 | – |
| COC1OC(C(=O)O)C2OC(C)(C)OC12 (stereo not drawn) | > 200 | > 200 | – |
| COc1ccc(-c2c(C#N)c(O)n(NS(=O)(=O)c3ccc(C)cc3)c(=O)c2C#N)cc1 | > 200 | 56.2 | – |
| CCCCCOCCCCCCCC(=O)O | > 200 | 89.1 | – |
| CC(=O)[CH-]C(C)=O.CC(=O)[CH-]C(C)=O.COc1cc2cc(C(=O)N3CC(CCl)c4ccc(NCCN)cc43)[nH]c2c(OC)c1OC.[Cr+5].[O-][Cl+3]([O-])([O-])[O-] (stereo not drawn) | > 1 | 0.479 | – |
| COC1/C=C/OC2(C)Oc3c(C)c(O)c4c(O)c(c(C=NN5C(C)CN(Cc6ccc(Cl)cc6)CC5C)c(O)c4c3C2=O)NC(=O)/C(C)=C/C=C/C(C)C(O)C(C)C(O)C(C)C(OC(C)=O)C1C (stereo not drawn) | > 200 | 6.17 | – |
| CC(C)=CCC/C(C)=C/Cc1c(O)ccc2cc(-c3cc(O)cc(O)c3CC=C(C)C)oc12 | > 22.4 | 18.2 | – |
| N#Cc1c(-c2ccccc2)cn2c1[nH]c(=O)c1ccccc12 | > 200 | 30.2 | – |
| Cc1ccc(-n2c(Cn3nnc(-c4cccnc4)n3)nn(C3OC(COC(=O)c4ccccc4)C(OC(=O)c4ccccc4)C3OC(=O)c3ccccc3)c2=S)cc1 (stereo not drawn) | > 200 | > 200 | – |
| CC1=Nc2ccccc2C1C(Cc1ccccc1N)c1c(C)[nH]c2ccccc12 (stereo not drawn) | – | – | inactive |
| Nc1nsc2nc3ccccc3cc12 | – | – | inactive |
| CC(C)=CCC[C@@H](C)c1c(O)c(O)c(C)c2nccnc12 | > 200 | 38 | – |
| COC(=O)[C@]1(C)CCC[C@@]2(C)C1CC[C@]13C=C(C(C)C)[C@H](CC21)CC3(Cl)C#N (stereo partly drawn) | > 200 | 37.2 | – |
| c1ccc2c(c1)CCN1CCc3ccccc3C1C2 (stereo not drawn) | > 200 | 36.3 | – |
| O=C(C=P(c1ccccc1)(c1ccccc1)c1ccccc1)C12CC3CC(CC(C3)C1)C2 | > 100 | 6.61 | – |
| Cc1cn(C2CC3C(COC(C)N3O)O2)c(=O)[nH]c1=O (stereo not drawn) | > 200 | > 200 | – |
| Cc1nnc2n1N=C1CC(C)(C)CC(=O)C1S2 (stereo not drawn) | > 105 | > 105 | – |
| O=C1CCC2(c3ccccc3)Nc3cc([N+](=O)[O-])ccc3N12 (stereo not drawn) | > 24.5 | > 24.5 | – |
